Assay results from US7326700B2, “Cyclohexenyl phenyl carboxamides tocolytic oxytocin receptor antagonists” (Wyeth, priority 2001, dated 2008).

What was measured:
human oxytocin receptor = biological target: T1, human oxytocin receptor (Homo sapiens, UniProt P30559); assay: Oxytocin binding in CHO cell membranes expressing human oxytocin receptors ([3H]oxytocin radioligand binding); details: for IC50: value in parentheses, read-out: OT (IC50)
T1 construct: host or cells: CHO cells, stably transfected (pcDNA3.1 vector)
T1 sequence (P30559 1-389): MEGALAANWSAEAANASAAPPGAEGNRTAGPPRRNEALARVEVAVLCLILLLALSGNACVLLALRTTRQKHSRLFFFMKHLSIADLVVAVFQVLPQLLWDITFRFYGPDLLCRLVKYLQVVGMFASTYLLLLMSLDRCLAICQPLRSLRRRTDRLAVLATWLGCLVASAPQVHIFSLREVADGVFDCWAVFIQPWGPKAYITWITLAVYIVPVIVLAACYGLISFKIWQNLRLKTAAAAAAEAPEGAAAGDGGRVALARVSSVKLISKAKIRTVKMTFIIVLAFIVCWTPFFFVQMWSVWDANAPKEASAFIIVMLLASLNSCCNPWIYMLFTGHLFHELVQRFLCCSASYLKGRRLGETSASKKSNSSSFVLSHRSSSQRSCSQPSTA
From the text: Chinese Hamster Ovary (CHO) cells stably transfected with the human oxytocin recptor (cf. Tanizawa et al., U.S. Pat. No. 5,466,584 (1995) to Rohto Pharmaceutical Co. Ltd., Osaka, Japan) were obtained from M. Thibonnier, Case Western Reserve University School of Medicine, Cleveland, Ohio.
CHO cells transfected with the human oxytocin receptors obtained from M. Thibonnier (pcDNA3.1 vector) are allowed to grow to confluency (approx. >90%) in T-150 flasks under sterile conditions, in a cell culture medium consisting of F-12 Nutrient Mixture (HAM) with L-glutamine (Gibco Cat. #11765-054) containing 15 mM HEPES (Gibco Cat. #15630-080), 1% antibiotic/antimycotic (add 5 mL 1 00×, Gibco Cat. #15240-062 per 500 mL F-12), 400 μg/mL of Geneticin (add 4 mL of 50 mg/mL per 500 mL F-12) and 10% Fetal Bovine Serum (Qualified, heat inactivated, Gibco Cat. #16140-063). The medium is removed by aspiration and the cells are washed with 10 mL of Hank's Balanced Salt solution (Gibco Cat. #14175-095). The salt solution is removed by aspiration and the cells trypsinized with 5 mL of trypsin-EDTA (0.05% trypsin, 0.53 mM EDTA-4Na, Gibco Cat. #25300-070) for 1 min The trypsin is removed by aspiration and the cells dislodged by tapping. Cell Culture medium (e.g. 30 mL for 1:30 split) is immediately added and mixed well to inactivate trypsin. 1 mL of detached cells is added to new culture flasks containing fresh Cell Culture medium (e.g. into 25 mL per T-150 flask), and mixed gently. The cells are incubated at 37° C. in 5% CO2. The medium is changed at 3 to 4 days interval (or as appropriate). The cells grow to confluency (approx. >75%-95%) within 7-8 days. All steps are done under sterile conditions.
The cells are washed twice gently with Hank's Balanced Salt solution (eg, use 10 mL per T-150 flask). The excess solution is removed and the cells bathed for 15-30 min. in an enzyme-free Cell Dissociation Buffer (eg, use 8 mL Hank's Based, Gibco Cat. #13150-016 per T-150 flask) until cells are loosened. The contents are transferred to centrifuge tubes (50 mL size) kept in ice bath. All subsequent steps are done at 4° C. The tubes are centrifuged at 300×g for 15 min (1380 rpm on SORVAL, Model RT6000D, using rotor for 50 mL tubes). The supernatant is discarded and the cells suspended in homogenizing buffer (10 mM Tris-HCl containing 0.25 M sucrose and 1 mM EDTA, pH 7.4) ensuring that the volume of the buffer is about ten times the volume of the cell pellet. The cells are pooled into a centrifuge tube (50 mL) and homogenized with a Polytron at setting 6 for 10 sec. The homogenate is transferred into a Potter-Elvjehm homogenizer and homogenized with 3 strokes. The homogenate is centrifuged at 1500×g for 10 min at 4° C. (3100 rpm using SORVAL, model RT6000D, using rotor for 50 mL tubes). The pellet is discarded. The supernatant is centrifuged at 100,000×g for 60 min. at 4° C. (Beckman L8-80M ultracentrifuge; spin at 37,500 rpm with rotor type 70 Ti for 50 mL tubes; 38,000 rpm with type 80 Ti for 15 mL tubes; or 35,800 rpm with rotor type 45Ti). The supernantant is discarded and the pellet suspended in 3 to 4 mL of Tris buffer (50 mM TRIS-HCl, pH 7.4). The protein content is estimated by the Bradford or Lowry method. The volume of the membrane suspension is adjusted with the membrane buffer (50 mM Tris-HCl containing 0.1% BSA and 0.1 mM PMSF) to give 3.0 mg/mL (or as appropriate) of protein. The membranes are aliquoted and stored at −70° C.
In wells of a 96-well format microtiter plate, is added 90, 110 or 130 μL (to make up a final volume of 200 μL) of assay buffer containing 50 mM of Tris-HCl (pH 7.4), […], 1 mg % aprotinin, 1 mg % leupeptin, 2 mg % 1,10-phenanthroline, 10 mg % trypsin inhibitor, and 0.1 mM PMSF. The inhibitors are added on the day of the experiment. The components are mixed at room temperature, and then kept in ice bath following adjustment of the pH to 7.4. […]

| OT % inhibition @ 100 nM (human oxytocin receptor; 100 nM) [%] | other results | Molecule |
| --- | --- | --- |
| – | melting point: 109 to 121 °C; IC50 (human oxytocin receptor): 1.88 nM | COc1cc(C2=CCCCC2)c(Cl)cc1C(=O)N1Cc2ccc(C(=O)N3CCC[C@H]3CN3CCCC3)n2Cc2ccccc21 [Example 1, 4-Chloro-5-cyclohex-1-en-1-yl-2-[(3-{[(2S)-2-(pyrrolidin-1-ylmethyl)pyrrolidin-1-yl]carbonyl}-5H-pyrrolo [2,1-c][1,4]benzodiazepin-10(11H)-yl)carbonyl]phenyl methyl ether] |
| – | melting point: 102 to 153 °C; inhibition at 0.1 µM (human oxytocin receptor; 100 nM, read-out: OT % inhibition @ 100 nM): 86% | CC1=C(c2ccc(C(=O)N3Cc4ccc(C(=O)N5CCN(C)CC5)n4Cc4ccccc43)cc2C)CCC[C@H]1O [Example 11, [4-((3R)-3-Hydroxy-2-methyl-cyclohex-1-en-1-yl)-3-methyl-phenyl]-[3-(4-methyl-piperazine-1-carbonyl)-10,11-dihydro-5H-pyrrolo [2,1-c][1,4]benzodiazepin-10-yl]-methanone] |
| 79 | – | Cc1cc(C(=O)N2Cc3ccc(C(=O)N4CCN(CCN5CCOCC5)CC4)n3Cc3ccccc32)ccc1C1=CCCCC1 [Example 23, {10-[4-(1-Cyclohex-1-en-1-yl)-3-methylbenzoyl]-10,11-dihydro-5H-pyrrolo[2,1-c][1,4]benzodiazepin-3-yl}{4-[2-(4-morpholinyl)ethyl]-1-piperazinyl}methanone] |
| 68 | – | C=CCN1CCN(C(=O)c2ccc3n2Cc2ccccc2N(C(=O)c2ccc(C4=CCCCC4)c(C)c2)C3)CC1 [Example 24, (4-Allyl-1-piperazinyl){10-[4-(1-cyclohex-1-en-1-yl)-3-methylbenzoyl]-10,11-dihydro-5H-pyrrolo[2,1-c][1,4]benzodiazepin-3-yl}methanone] |
| 71 | – | Cc1cc(C(=O)N2Cc3ccc(C(=O)N4CCN(C(C)C)CC4)n3Cc3ccccc32)ccc1C1=CCCCC1 [Example 25, {10-[4-(1-Cyclohex-1-en-1-yl)-3-methylbenzoyl]-1 0,11-dihydro-5H-pyrrolo[2,1-c][1,4]benzodiazepin-3-yl}(4-isopropyl-1-piperazinyl)methanone] |
| 101 | – | Cc1cc(C(=O)N2Cc3ccc(C(=O)N4CCC[C@H]4CN4CCCC4)n3Cc3ccccc32)ccc1C1=CCCCC1 [Example 26, {10-[4-(1-Cyclohex-1-en-1-yl)-3-methylbenzoyl]-10,11-dihydro-5H-pyrrolo[2,1-c][1,4]benzodiazepin-3-yl}[(2S)-2-(1-pyrrolidinylmethyl)pyrrolidinyl]methanone] |
| 100 | – | Cc1cc(C(=O)N2Cc3ccc(C(=O)N4CC[C@@H](N(C)C)C4)n3Cc3ccccc32)ccc1C1=CCCCC1 [Example 27, {10-[4-(1-Cyclohex-1-en-1-yl)-3-methylbenzoyl]-10,11-dihydro-5H-pyrrolo[2,1-c][1,4]benzodiazepin-3-yl}[(3R)-3-(dimethylamino)pyrrolidinyl]methanone] |
| – | IC50 (human oxytocin receptor): 32.6 nM | {10-[4-(1-Cyclohexen-1-yl)-3-methylbenzoyl]-10,11-dihydro-5H-pyrrolo[2,1-c][1,4]benzodiazepin-3-yl}(4-methyl-piperazin-1-yl)methanone [Example 12] |
